Test results from a melting point compilation (Tetko et al.).

Structure (SMILES)	melting point
CCN1CCN(Cc2ccc(N)cc2)CC1	72 to 74 °C
O=C(O)c1cccc(S(=O)(=O)NCc2ccccc2)c1	225 to 227 °C
O=C(O)C=C1CCC1	89 to 91 °C
Cc1nnc(N2CCCC2)c(C(N)=S)c1C	169 to 171 °C
CC(=O)c1cccc(OCc2cc(C(=O)O)no2)c1	169 to 171 °C
O=C(O)C1Cc2nc[nH]c2C(c2ccccc2)N1 (configuration not stated)	209 to 211 °C
COc1ccc(Nc2ccccc2C(=O)O)cc1	184 to 186 °C
CC(Nc1ccccn1)c1ccco1 (configuration not stated)	136 to 138 °C
COc1cc(C=O)ccc1S	43 to 45 °C
O=c1[nH]c(CCl)nc2ccsc12	190 to 193 °C
COc1ccc(C(=O)O)cc1OC(F)F	179 to 181 °C
O=C(O)c1cc(/C=C/c2ccc(Cl)cc2)nc2ccc(Br)cc12	320 to 322 °C
NCCCc1nc2ccccc2[nH]1	210 to 212 °C
O=C1COc2cc(Br)ccc2N1	192 to 194 °C
COC(=O)c1cc(F)cc(I)c1N	52 to 54 °C
CN(C)S(=O)(=O)c1ccccc1CNC(=O)CCl	87 to 89 °C
Cc1cc(C(=O)CCl)ccc1F	33 to 35 °C
COc1ccc(CC(N)=NO)cc1	109 to 111 °C
O=C(c1ccc(Cl)cc1)N1CCNCC1	80 to 82 °C
CN(C)Cc1nc(Cl)c2c(-c3ccccc3)csc2n1	114 to 116 °C
O=C(O)c1ccc(F)c(S(=O)(=O)N2CCC2)c1	180 to 182 °C
NNS(=O)(=O)Cc1ccccc1	131 to 133 °C
NC(=O)c1c(NC(=O)CCl)sc2c1CCCC2	236 to 238 °C
C=CC(=O)NC(=O)NC	174 to 176 °C
OCc1nc(-c2ccccc2)cs1	87 to 89 °C

Structure (SMILES)	melting point
COc1cccc(-c2csc(=O)[nH]2)c1	154 to 156 °C
Cc1nn(C)c(C)c1-c1cc(C(=O)O)[nH]n1	281 to 283 °C
Nc1cc(S(=O)(=O)NCCCN2CCOCC2)ccc1Cl	< 17 °C
Cc1cc(C(=O)O)n2nc(C)cc2n1	189 to 191 °C
Nc1cnn(CC(=O)NC2CCCC2)c1	108 to 110 °C
NS(=O)(=O)Cc1c(F)cccc1F	153 to 155 °C
O=C(O)Cc1ccc(NC(=O)C2CCCC2)cc1	173 to 175 °C
O=C(O)c1nc(-c2ccccc2)oc1C1CC1	198 to 200 °C
CCc1c(C)sc(N)c1C#N	103 to 105 °C
CCNC(=O)c1ccc(CN)cc1	92 to 94 °C
O=C(O)c1cc(S(=O)(=O)N2CCCCC2)ccc1N1CCOCC1	173 to 175 °C
CC1CCc2[nH]c3ccc(C(=O)O)cc3c2C1 (configuration not stated)	218 to 220 °C
Cc1c(N)cccc1CS(C)=O (configuration not stated)	183 to 185 °C
Cc1nc(-c2ccncc2)nc(O)c1C	256 to 258 °C
Cn1c(=O)oc2cc(Br)ccc21	144 to 146 °C
OC1CCCCC1c1ccc(F)cc1 (configuration not stated)	71 to 73 °C
Cc1ccc(NC(=O)c2c(F)cccc2Cl)c(C(=O)O)c1	249 to 251 °C
COc1cccc(C(=O)NN2C(=O)CSC2=S)c1	156 to 158 °C
CC(C)(C)c1cc(C(=O)O)c(O)c(C(C)(C)C)c1	157 to 162 °C
Cc1cc(NC(=O)c2ccccc2I)sc1C(=O)O	202 to 204 °C
O=C(O)c1cnc2ccsc2c1	259 to 261 °C
O=C(O)c1ccc(-c2nnn[nH]2)cc1	282 to 284 °C
O=C(O)CNc1ncccn1	169 to 171 °C
BrCCCOc1ccc2c(c1)OCO2	60 to 62 °C
Cc1cc(N)n(CCO)n1	48 to 52 °C

Structure (SMILES)	melting point
O=C1CC(=Cc2ccc(F)cc2)C(=O)N1	209 to 211 °C
NC(=S)CCN1CCCCC1	104 to 106 °C
CC(C)c1[nH]ncc1C(=O)O	216 to 218 °C
CC(=O)c1cccc(S(=O)(=O)NC(CC(N)=O)C(=O)O)c1 (configuration not stated)	191 to 193 °C
NC(=S)NCC1CCC1	123 to 125 °C
ClCc1cnoc1-c1ccc(Cl)cc1	78 to 80 °C
Cc1cc(C=O)c(C)n1-c1cccc([N+](=O)[O-])c1	149 to 151 °C
O=[N+]([O-])c1sc(Cl)nc1Cl	38 to 40 °C
CNCc1cccc(O)c1	144 to 146 °C
CNC(CCO)c1ccccc1 (configuration not stated)	56 to 58 °C
Cc1ccc(C(=O)c2c(N)sc3c2CCC3)cc1F	177 to 179 °C
Cc1cc(CCCC(=O)O)c(C)s1	56 to 58 °C
Cn1ncc2c(N3CCNCC3)ncnc21	64 to 66 °C
O=C1CC(=O)Nc2ccccc2N1	383 to 385 °C
O=C(O)C1CCCCN1C(=O)C1CCCO1 (configuration not stated)	116 to 118 °C
O=C(CCl)NC1CCN(Cc2ccccc2)CC1	117 to 119 °C
CC(C)c1nn(-c2ccc(Br)cc2)cc1C=O	99 to 101 °C
CC(C)(O[Si](C)(C)C)C(N)=O	29 to 31 °C
CCOC(=O)/C(C#N)=C\Nc1ccccc1CC	124 to 126 °C
COc1cccc(NCCC(=O)O)c1	87 to 89 °C
CC(=O)Nc1c(Cl)cc(Br)c2ccccc12	227 to 229 °C
O=C(c1cccc(S(=O)(=O)Cl)c1)N1CCCC1	65 to 67 °C
Cc1nc2c(cnn2-c2cccc(Cl)c2)c(=O)[nH]1	114 to 116 °C
NC(=O)CSc1ccccc1N	113 to 115 °C
COC(=O)c1ccc(Oc2cccnc2)cc1	82 to 84 °C

Structure (SMILES)	melting point
Clc1ncnc2c1nnn2-c1ccccc1	115 to 117 °C
O=C(O)C1CSC(c2ccc(Cl)s2)N1 (configuration not stated)	149 to 151 °C
O=C(O)c1cnoc1-c1cccs1	198 to 200 °C
CCOc1ccc(NC(=S)NN)cc1	178 to 182 °C
CC(C)(C)NC(=O)c1ccc(N)cc1	124 to 126 °C
COc1cc(CC#N)ccc1[N+](=O)[O-]	84 to 86 °C
N#CCOc1ccc(CCl)cc1	63 to 65 °C
COc1ccc(C(C)CC(=O)O)cc1 (configuration not stated)	66 to 68 °C
O=C(CN1CCNCC1)NC1CC1	22 to 24 °C
O=C(O)C1CCN(c2ccc(F)c(F)c2)C1=O (configuration not stated)	154 to 156 °C
O=C(O)c1cccc(OCc2ccc(F)cc2)c1	143 to 145 °C
Cc1cc(C)c(S(=O)(=O)N2CCC(C(=O)O)CC2)c(C)c1	181 to 183 °C
Cc1c[nH]c(=O)n1-c1ccc(C(=O)O)cc1	285 to 287 °C
CC(C)Cc1nc(C#N)c(NN)o1	102 to 104 °C
O=C1CNC(=O)N1C1CC1	144 to 146 °C
O=Cc1cnc2ccnn2c1	166 to 168 °C
O=C1CCc2cc(OCCCl)ccc2N1	150 to 152 °C
NCCCc1n[nH]c(N)c1-c1nc2ccccc2s1	313 to 315 °C
CC(C)c1oc(-c2ccccc2)nc1C(=O)O	153 to 155 °C
COc1ccc(Br)cc1CCC(=O)O	116 to 118 °C
Nc1cc(CCCc2cccs2)no1	43 to 45 °C
O=C(O)c1ccncc1N1CCCC1	259 to 261 °C
Cc1cc(C)cc(Oc2ccc(CN)cc2C)c1	56 to 58 °C
O=c1[nH]ccn(C2CC2)c1=O	161 to 163 °C
CC(C)(C)OC(=O)N1CCN(c2ccc(Cl)nn2)CC1	162 to 164 °C

Structure (SMILES)	melting point
CC(Cc1nc2ccccc2s1)(C(=O)O)c1ccccc1 (configuration not stated)	193 to 195 °C
CC(C)NC(=O)NN	77 to 79 °C
O=C(O)c1ccc(CCC(F)(F)F)cc1	211 to 213 °C
O=C1CCc2cc(C(=O)CCl)c(F)cc2N1	257 to 259 °C
COc1ccc(S(=O)(=O)N(C)C)cc1N	192 to 194 °C
O=Cc1cn(-c2ccccc2)nc1-c1ccc(Br)cc1	141 to 143 °C
O=C(O)CCNc1nccs1	171 to 173 °C
O=Cc1c[nH]nc1-c1ccc(Cl)cc1	139 to 141 °C
Cc1cc2c(n1-c1cccc(C(F)(F)F)c1)CCCC2=O	121 to 123 °C
COc1cc(C#N)c2ccccc2n1	133 to 135 °C
Cc1ccc(C(=O)C(Br)CC(=O)O)cc1 (configuration not stated)	116 to 118 °C
Nc1cc2c(cc1Cl)NC(=O)CO2	227 to 229 °C
O=C(Nc1ncccn1)C1CCNCC1	146 to 148 °C
O=C(Nc1cccc2cnccc12)OCC(F)(F)F	181 to 183 °C
CC(C)(C)OC(=O)N1CCC(OC(=O)c2ccccc2N)CC1	120 to 122 °C
Cc1ccc2oc(S)nc2n1	139 to 141 °C
NC(=O)NC(=O)CCCCl	179 to 181 °C
Cc1ccc(S(=O)(=O)NCc2ccco2)cc1C(=O)O	178 to 180 °C
NC1(C(=O)O)CCN(Cc2ccccc2)C1 (configuration not stated)	216 to 218 °C
CN(CCOc1ccccc1F)C(=O)CCl	68 to 70 °C
Cn1ncc2c1CCCC2O (configuration not stated)	104 to 106 °C
CN1CC(=O)Nc2cnccc21	274 to 276 °C
Cc1cc(O)cc(=O)n1CC(=O)O	248 to 250 °C
Cc1ccc(-c2ccc(O)cc2)cc1	155 to 157 °C
CC(=Cc1cccc(Cl)c1)C(=O)O	99 to 101 °C

Structure (SMILES)	melting point
CC(C)n1nnc(C(=O)O)c1C(F)(F)F	99 to 101 °C
CC(Sc1nncn1C)C(=O)O (configuration not stated)	157 to 159 °C
CN(C)C(=O)c1ccc(C#N)cc1	93 to 95 °C
CNS(=O)(=O)c1ccc(-c2ccccc2OC(F)(F)F)c(C(=O)O)c1	172 to 174 °C
O=C1CNC(=O)c2ccccc2N1	324 to 326 °C
COc1ccc(C(=O)O)cc1S(=O)(=O)N1CCCCC1C (configuration not stated)	175 to 180 °C
O=C(O)c1cccnc1Oc1cccnc1	190 to 192 °C
Oc1ccc2nc[nH]c2c1	215 to 217 °C
O=Cc1sc(=O)[nH]c1Cl	199 to 201 °C
Cc1ccc(N)c(C(=O)N(C)C)c1	98 to 100 °C
N#CCN1CCOCC1	62 to 64 °C
CNC(=O)c1cc(Oc2cccc(O)c2C)ccn1	179 to 181 °C
OCC1CCCN(c2cc(Cl)ncn2)C1 (configuration not stated)	111 to 113 °C
CCc1cc(N)c2ccccc2n1	152 to 154 °C
Cc1nnc(S)n1C1CC1	132 to 134 °C
CC(C)(C)OC(=O)N1CCC(OS(C)(=O)=O)CC1	84 to 86 °C
O=C(O)c1ccccc1C(=O)N1CCCC1	131 to 133 °C
Cc1cc(C(=O)O)sc1-c1cccc(Cl)c1	178 to 180 °C
CCC(CO)NC(=O)c1ccc(N)cc1 (configuration not stated)	153 to 155 °C
Cc1nc(Cl)c2c3c(sc2n1)CCCCC3	43 to 47 °C
Cn1c(Cl)cnc1CO	110 to 112 °C
CNC(=O)NC1(C(=O)O)CCCC1	165 to 167 °C
